Measurements: patent US4531001A, “2-β-D-ribofuranosylselenazole-4-carboxamide compounds” (priority 1983, dated 1985)
“And” between values parts separate entries of the source, which are not always exact repeats. Equal entries are not always repeated.

Assays:
P388 = assay: Growth inhibition in suspension cell culture, P388; type: cell-based; details: Mus musculus, 72 hours, cell count 50 percent of untreated control, read-out: ID50 (the source's name)
Experimental: (§1) In further tests, growth-inhibitory effects of COMPOUND 1 and COMPOUND 2 were measured against 3 mouse tumor lines in suspension cell culture. Cell cultures were initiated at a density of 50,000 cells/ml in medium RPMI 1630 supplemented with 10 percent fetal calf serum. Composition of this culture medium and details of the culture procedure followed the published method (G. E. Moore, A. A. Sandberg and K. Ulrich, Suspension Cell Culture and in vivo and in-vitro chromosome constitution of mouse leukemia L1210, Journal of the National Cancer Institute 36, 405-415, 1966). Cultures were maintained at 37 degrees in stationary suspension culture under a 95 percent air+5 percent CO2 atmosphere. Test compounds were added to treated cultures at the time of initiation, and were present continually. After 72 hours, 40-fold dilutions of drug-treated and untreated control cultures were prepared in 0.9 percent NACl solution, and cells were counted on an electronic particle counter. The growth-inhibitory effects are expressed as ID50 values, namely, test compound inhibitory dosages or concentrations required to decrease cell count in treated cultures to 50 percent of the cell count of untreated control cultures.

B16 Melanoma = assay: Growth inhibition in suspension cell culture, B16 Melanoma; type: cell-based; details: Mus musculus, 72 hours, cell count 50 percent of untreated control, read-out: ID50 (the source's name)
Experimental: as §1

3 mouse tumor lines = assay: Growth inhibition in suspension cell culture, representative tumor lines; type: cell-based
Experimental: as §1

Lewis lung carcinoma = assay: Antitumor activity against Lewis lung carcinoma, Example 14 (Table IV); type: in vivo, B6D 2F 1 male mice; parameters: Treated Group Survival Time: unit not given here; details: for Treated Group Survival Time: mean, control 19.0
Experimental: As illustrative examples of the antitumor use of COMPOUNDS 1 and 2, Examples 12 through 14, below, are given. […] The tests utilized in these illustrative examples were conducted by the Developmental Therapeutics Program, Division of Cancer Treatment, National Cancer Institute. The tests were supervised by this agency utilizing their standard protocols and procedures. All tests conformed to these protocols and all tests were evaluated under the criteria defined by these protocols. The following representative examples illustrate confirmed activity of the illustrative compounds of the invention against screening tumor systems of the National Cancer Institute.
For purposes of the following examples, the abbreviation IP stands for intraperitoneal and IV stands for intravenous. The mean and median survival times are calculated in instruction 14 (revised 6/78) of the Screening Data Summary, Developmental Therapeutics Program, Division of Cancer Treatment, National Cancer Institute. The contents of this Screening Data Summary including appropriate revisions are herein incorporated by reference.
In the illustrated examples below, the vehicle used as carrier for the drug was injected (minus any drug therein) into the control animals at the same level of use of the vehicle in the drug treated animals in order to eliminate any vehicle effect of the tests.
In both the control group and the drug treated group in Example 12, the animals were inoculated on day zero with a homogenate of 10^6 seed cells of Lewis lung carcinoma. For Example 12, drug treatment was started on day one and COMPOUND 1 given once daily for nine days. Day five was utilized as the cut-off date for deaths attributable to toxicity of the drug. […] Efficacy of treatment was determined by comparing median survival time of the control animals and is expressed as percentage increase of treated animals/control animals (T/C).
COMPOUND 2, 2-(5-phosphono-β-D-ribofuranosyl)selenazole-4-carboxamide was screened for Lewis lung carcinoma activity in a manner similar to that described in Example 12. In this example, B6D 2F 1 male mice were challenged with Lewis lung carcinoma. The mean survival time of the test animals was compared to that of appropriate control animals. […] At 13 mg/kg the treated, surviving mice have a T/C of 315 percent and 4 out of 10 cures were achieved.

L-1210 = assay: Growth inhibition in suspension cell culture, L-1210; type: cell-based; details: Mus musculus, L1210, 72 hours, cell count 50 percent of untreated control, read-out: ID50 (the source's name)
Experimental: as §1

`NC(=O)c1c[se]c([C@@H]2O[C@H](COP(=O)(O)O)[C@@H](O)[C@H]2O)n1` [COMPOUND 2, 2-β-D-Ribofuranosylselenazole-4-Carboxamide 5'-phosphate] was tested, and the IC50 (P388) was 66 nM, the IC50 (B16 Melanoma) was 7500 nM and the “growth inhibition compared with COMPOUND 1, in words” value (3 mouse tumor lines; cell culture) was “appears to be superior to COMPOUND 1”. For the same molecule, the “growth inhibition in words” value (3 mouse tumor lines; representative tumor lines in cell culture) was “inhibit growth in cell culture for representative tumor lines at extremely low dosage”, the Cures (Lewis lung carcinoma; 3 mg/kg) was 0/10 and the “Percent Treated Animals/Control Animals (T/C)” value (Lewis lung carcinoma; 3 mg/kg) was 109%. For the same molecule, the “Treated Group Survival Time” value (Lewis lung carcinoma; 3 mg/kg) was 20.8, the Cures (Lewis lung carcinoma; 6 mg/kg) was 0/10 and the “Percent Treated Animals/Control Animals (T/C)” value (Lewis lung carcinoma; 6 mg/kg) was 115%. The “Treated Group Survival Time” value (Lewis lung carcinoma; 6 mg/kg) was 22.0, the Cures (Lewis lung carcinoma; 9 mg/kg) was 1/10 and the “Treated Group Survival Time” value (Lewis lung carcinoma; 9 mg/kg) was 12.5. For the same molecule, the Cures (Lewis lung carcinoma; 13 mg/kg) was 4 out of 10 and 4/10, the “Percent Treated Animals/Control Animals (T/C)” value (Lewis lung carcinoma; 13 mg/kg) was 315% and the “Treated Group Survival Time” value (Lewis lung carcinoma; 13 mg/kg) was 60.0. The Cures (Lewis lung carcinoma; 20 mg/kg) was 2/10, the “Treated Group Survival Time” value (Lewis lung carcinoma; 20 mg/kg) was 12.0 and the Cures (Lewis lung carcinoma; 33 mg/kg) was 3/10. The “Treated Group Survival Time” value (Lewis lung carcinoma; 33 mg/kg) was 12.5, the Cures (Lewis lung carcinoma; 50 mg/kg) was 3/10 and the “Treated Group Survival Time” value (Lewis lung carcinoma; 50 mg/kg) was 12.5. The Cures (Lewis lung carcinoma; 75 mg/kg) was 1/10, the “Treated Group Survival Time” value (Lewis lung carcinoma; 75 mg/kg) was 15.5 and the “antitumor activity in words” value (Lewis lung carcinoma; mean survival time versus control) was “effective antitumor agent”. It also gave an IC50 (L-1210) of 58 nM.
